PubChem BioAssay (NCI)
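Five compound concentrations were applied to cells in 96-well plates for 48 hours; endpoints were derived by simple linear interpolation of the resulting dose-response curve. Here, GI50 denotes the concentration required for 50% inhibition of growth. At the TGI there is no net growth.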

How the values were obtained:
Experiment in all cases: NCI-60 cell line screen, 48 h
CAKI-1 renal = tested on: CAKI-1 renal
K-562 leukemia = tested on: K-562 leukemia
MDA-MB-231 breast = tested on: MDA-MB-231 breast
MDA-MB-435 = tested on: MDA-MB-435
NCI-H522 lung = tested on: NCI-H522 lung
OVCAR-8 ovarian = tested on: OVCAR-8 ovarian
SK-MEL-2 melanoma = tested on: SK-MEL-2 melanoma
SK-MEL-28 melanoma = tested on: SK-MEL-28 melanoma
SNB-19 CNS = tested on: SNB-19 CNS
BT-549 breast = tested on: BT-549 breast

COC(=O)C(NC(=O)CSc1nnc(COc2ccc(Cl)cc2)n1-c1ccccc1)C(C)C (stereo not given)
TGI (CAKI-1 renal): 25.1 µM | TGI (K-562 leukemia): > 100 µM | TGI (MDA-MB-231 breast): 35.1 µM | TGI (MDA-MB-435): 43 µM | TGI (NCI-H522 lung): 24.7 µM | TGI (OVCAR-8 ovarian): 64.7 µM | TGI (SK-MEL-2 melanoma): 35.1 µM | TGI (SK-MEL-28 melanoma): 51.6 µM | TGI (SNB-19 CNS): 73 µM

COC(=O)n1c(C[P+](c2ccccc2)(c2ccccc2)c2ccccc2)cc2ccccc21
TGI (CAKI-1 renal): 7.15 µM | TGI (K-562 leukemia): 16.2 µM | TGI (NCI-H522 lung): 6.34 µM | TGI (OVCAR-8 ovarian): 10.4 µM | TGI (SK-MEL-2 melanoma): 4.97 µM | TGI (SK-MEL-28 melanoma): 15.7 µM | TGI (SNB-19 CNS): 10.8 µM

COc1ccc(C2=C(OC(=O)N(C)C)c3cccn3-c3cc(Cl)ccc3S2)cc1
TGI (CAKI-1 renal): > 10 µM | TGI (K-562 leukemia): > 10 µM | TGI (MDA-MB-231 breast): > 10 µM | TGI (MDA-MB-435): > 10 µM | TGI (OVCAR-8 ovarian): > 10 µM | TGI (SK-MEL-28 melanoma): > 10 µM

CCOC(=O)CCCn1cc(C(=O)OC)nn1
TGI (BT-549 breast): > 100 µM | TGI (CAKI-1 renal): > 100 µM | TGI (MDA-MB-231 breast): > 100 µM | TGI (MDA-MB-435): > 100 µM | TGI (OVCAR-8 ovarian): > 100 µM | TGI (SK-MEL-2 melanoma): > 100 µM | TGI (SK-MEL-28 melanoma): > 100 µM | TGI (SNB-19 CNS): > 100 µM

CCOC(=O)C1CCCCc2sc(N)c(C#N)c21 (stereo not given)
TGI (BT-549 breast): > 100 µM | TGI (K-562 leukemia): > 100 µM | TGI (MDA-MB-231 breast): > 100 µM | TGI (OVCAR-8 ovarian): > 100 µM | TGI (SK-MEL-2 melanoma): > 100 µM | TGI (SK-MEL-28 melanoma): > 100 µM | TGI (SNB-19 CNS): > 100 µM

CC(=O)CC1(C)OC(N)=C(C#N)C1(C#N)C#N (stereo not given)
TGI (CAKI-1 renal): > 100 µM | TGI (MDA-MB-231 breast): > 100 µM | TGI (MDA-MB-435): > 100 µM | TGI (NCI-H522 lung): > 100 µM | TGI (OVCAR-8 ovarian): > 100 µM | TGI (SK-MEL-2 melanoma): > 100 µM | TGI (SK-MEL-28 melanoma): > 100 µM | TGI (SNB-19 CNS): > 100 µM

CC12CC(c3ccccc3O1)C(C(=O)Nc1cccc(F)c1)C(=O)N2 (stereo not given)
TGI (BT-549 breast): 66.8 µM | TGI (CAKI-1 renal): > 100 µM | TGI (K-562 leukemia): > 100 µM | TGI (MDA-MB-435): > 100 µM | TGI (NCI-H522 lung): > 100 µM | TGI (OVCAR-8 ovarian): 80.6 µM | TGI (SK-MEL-2 melanoma): > 100 µM | TGI (SK-MEL-28 melanoma): > 100 µM | TGI (SNB-19 CNS): > 100 µM

C=C[C@@](C)(/C=C/c1ccc(O)cc1)CCC=C(C)C
TGI (CAKI-1 renal): 32.6 µM | TGI (K-562 leukemia): 29.9 µM | TGI (MDA-MB-231 breast): 35.8 µM | TGI (MDA-MB-435): 33.9 µM | TGI (NCI-H522 lung): 30.9 µM | TGI (OVCAR-8 ovarian): 35.2 µM | TGI (SK-MEL-2 melanoma): 37.3 µM | TGI (SK-MEL-28 melanoma): 35.7 µM | TGI (SNB-19 CNS): 34.7 µM

CC(C)(C)c1c(C(C)(C)C)c(=O)c1=O
TGI (BT-549 breast): > 100 µM | TGI (CAKI-1 renal): > 100 µM | TGI (K-562 leukemia): > 100 µM | TGI (MDA-MB-231 breast): > 100 µM | TGI (MDA-MB-435): > 100 µM | TGI (OVCAR-8 ovarian): > 100 µM | TGI (SK-MEL-2 melanoma): > 100 µM | TGI (SK-MEL-28 melanoma): > 100 µM | TGI (SNB-19 CNS): > 100 µM

Cc1cc(=O)[nH]c(NNC(C#N)c2ccc([N+](=O)[O-])cc2)n1 (stereo not given)
TGI (CAKI-1 renal): > 100 µM | TGI (K-562 leukemia): > 100 µM | TGI (NCI-H522 lung): > 100 µM | TGI (OVCAR-8 ovarian): > 100 µM | TGI (SK-MEL-2 melanoma): > 100 µM | TGI (SK-MEL-28 melanoma): > 100 µM

CC(=O)NC1=C(NCC(C)C)C(=O)c2ccccc2C1=O
TGI (CAKI-1 renal): 30.6 µM | TGI (K-562 leukemia): 36.7 µM | TGI (OVCAR-8 ovarian): 47.2 µM | TGI (SK-MEL-2 melanoma): 67.8 µM | TGI (SK-MEL-28 melanoma): 37.2 µM | TGI (SNB-19 CNS): > 100 µM

O=C1CC2(CCNCC2)C(=O)N1N1CCOCC1
TGI (BT-549 breast): > 100 µM | TGI (CAKI-1 renal): > 100 µM | TGI (K-562 leukemia): > 100 µM | TGI (MDA-MB-231 breast): > 100 µM | TGI (NCI-H522 lung): > 100 µM | TGI (OVCAR-8 ovarian): > 100 µM | TGI (SK-MEL-2 melanoma): > 100 µM | TGI (SK-MEL-28 melanoma): > 100 µM | TGI (SNB-19 CNS): > 100 µM

COC(=O)/C=C/c1ccc2c(c1)CC1(Cc3ccccc3C1)C2
TGI (K-562 leukemia): > 100 µM | TGI (MDA-MB-231 breast): > 100 µM | TGI (MDA-MB-435): > 100 µM | TGI (NCI-H522 lung): > 100 µM | TGI (OVCAR-8 ovarian): > 100 µM | TGI (SK-MEL-2 melanoma): > 100 µM

CC1(C)COC(c2c(-c3ccccc3)noc2CS(=O)c2ccccc2)=N1 (stereo not given)
TGI (CAKI-1 renal): > 100 µM | TGI (K-562 leukemia): > 100 µM | TGI (NCI-H522 lung): > 100 µM | TGI (OVCAR-8 ovarian): > 100 µM | TGI (SK-MEL-2 melanoma): 70.2 µM | TGI (SK-MEL-28 melanoma): > 100 µM | TGI (SNB-19 CNS): > 100 µM

COC(=O)CC(NC(=O)OCc1ccccc1)C(C(=O)OCc1ccccc1)C1(C)OCCO1 (stereo not given)
TGI (K-562 leukemia): > 100 µM | TGI (OVCAR-8 ovarian): > 100 µM | TGI (SK-MEL-2 melanoma): 43.8 µM | TGI (SK-MEL-28 melanoma): > 100 µM | TGI (SNB-19 CNS): > 100 µM

O=C(CSc1nc2ccc(I)cc2c(=O)n1Cc1ccccc1)NN1C(=O)CCC1=O
TGI (CAKI-1 renal): 6.91 µM | TGI (K-562 leukemia): > 100 µM | TGI (MDA-MB-231 breast): > 100 µM | TGI (MDA-MB-435): > 100 µM | TGI (NCI-H522 lung): 47.1 µM | TGI (OVCAR-8 ovarian): > 100 µM | TGI (SK-MEL-2 melanoma): > 100 µM | TGI (SK-MEL-28 melanoma): > 100 µM | TGI (SNB-19 CNS): > 100 µM

O=C1OI(C#Cc2ccccc2)c2ccccc21
TGI (BT-549 breast): 8.22 µM | TGI (CAKI-1 renal): 6.5 µM | TGI (K-562 leukemia): 6.7 µM | TGI (MDA-MB-231 breast): > 55.3 µM | TGI (MDA-MB-435): 14.1 µM | TGI (OVCAR-8 ovarian): 36.4 µM | TGI (SK-MEL-2 melanoma): 44.1 µM | TGI (SK-MEL-28 melanoma): 21.2 µM | TGI (SNB-19 CNS): 21.8 µM

CC12CC(C/C1=N/O)C(C)(C)C2 (stereo not given)
TGI (BT-549 breast): > 100 µM | TGI (CAKI-1 renal): > 100 µM | TGI (K-562 leukemia): > 100 µM | TGI (MDA-MB-231 breast): > 100 µM | TGI (MDA-MB-435): > 100 µM | TGI (NCI-H522 lung): > 100 µM | TGI (OVCAR-8 ovarian): > 100 µM | TGI (SK-MEL-28 melanoma): > 100 µM | TGI (SNB-19 CNS): > 100 µM

NC(=S)N/N=C\CC(O)(C(F)(F)F)C(F)(F)F
TGI (CAKI-1 renal): > 10 µM | TGI (K-562 leukemia): > 10 µM | TGI (MDA-MB-231 breast): > 10 µM | TGI (MDA-MB-435): > 10 µM | TGI (NCI-H522 lung): > 10 µM | TGI (OVCAR-8 ovarian): > 10 µM | TGI (SK-MEL-2 melanoma): > 10 µM | TGI (SK-MEL-28 melanoma): > 10 µM | TGI (SNB-19 CNS): > 10 µM

CCCCCCOc1ccc(C(=N)N(CCCC)CCCC)c2ccccc12
GI50 (CAKI-1 renal): 1.39 µM | TGI (CAKI-1 renal): 2.86 µM | GI50 (NCI-H522 lung): 0.61 µM | TGI (NCI-H522 lung): 2.07 µM | GI50 (SK-MEL-2 melanoma): 1.72 µM | TGI (SK-MEL-2 melanoma): 3.23 µM | GI50 (SK-MEL-28 melanoma): 1.77 µM | TGI (SK-MEL-28 melanoma): 3.2 µM

O=CNNC(=O)Nc1ccc(Cl)cc1
TGI (K-562 leukemia): > 100 µM | TGI (MDA-MB-231 breast): > 100 µM | TGI (MDA-MB-435): > 100 µM | TGI (OVCAR-8 ovarian): > 100 µM | TGI (SK-MEL-28 melanoma): > 100 µM | TGI (SNB-19 CNS): > 100 µM

COc1cccc(CN(C(=O)/C=C\Sc2ccccc2)C(C)(C)C)c1
TGI (BT-549 breast): > 100 µM | TGI (CAKI-1 renal): > 100 µM | TGI (MDA-MB-231 breast): > 100 µM | TGI (MDA-MB-435): > 100 µM | TGI (OVCAR-8 ovarian): > 100 µM | TGI (SK-MEL-2 melanoma): > 100 µM | TGI (SK-MEL-28 melanoma): > 100 µM | TGI (SNB-19 CNS): > 100 µM

CCOC(=O)c1nc2ccccc2nc1NCc1ccc(Cl)cc1Cl
TGI (BT-549 breast): > 100 µM | TGI (CAKI-1 renal): > 100 µM | TGI (K-562 leukemia): > 100 µM | TGI (MDA-MB-231 breast): > 100 µM | TGI (MDA-MB-435): > 100 µM | TGI (NCI-H522 lung): > 100 µM | TGI (OVCAR-8 ovarian): > 100 µM | TGI (SK-MEL-2 melanoma): > 100 µM | TGI (SNB-19 CNS): > 100 µM

C/C(=C\Cc1cc(O)ccc1O)CCc1c(C)cc(O)c(C=O)c1C
TGI (CAKI-1 renal): 63.5 µM | TGI (K-562 leukemia): > 100 µM | TGI (NCI-H522 lung): 23.6 µM | TGI (OVCAR-8 ovarian): 33.9 µM | TGI (SK-MEL-2 melanoma): 58.6 µM | TGI (SK-MEL-28 melanoma): 54.7 µM | TGI (SNB-19 CNS): > 100 µM
